For 22 molecules, IC50, solubility in PO4 buffer and solubility results are on record in patent US9234000B2, “Benzylamine derivatives as inhibitors of plasma kallikrein” (KalVista Pharmaceuticals Limited, priority 2011, dated 2016).

The target in data set [1] is Human KLK1 (Homo sapiens (Human), UniProt P06870). Kind of data set: Determination of the IC50 for KLK1. It is filed as biochemical. To be noted: Human KLK1, 37° C., substrate H-DVal-Leu-Arg-AFC; Table 12. A digest of the protocol:
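Human KLK1 incubated at 37 °C with fluorogenic substrate H-DVal-Leu-Arg-AFC and a range of test compound concentrations. Residual activity was taken as initial reaction rate from absorbance change at 410 nm, and the IC50 derived from it.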

Data set [2] has as its target Human plasma kallikrein (Homo sapiens (Human), UniProt P03952). Kind of data set: Determination of the IC50 for plasma kallikrein. The note with it: fluorogenic substrate H-DPro-Phe-Arg-AFC, 37° C., read-out: IC50 (human PKal). Type of data set: biochemical. The essentials:
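Residual activity (initial rate, absorbance at 410 nm) gave the IC50. Reactions at 37° C combined human plasma kallikrein, substrate H-DPro-Phe-Arg-AFC and a range of inhibitor concentrations.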

The nature of data set [3]: physchem. To be noted: for solubility in PO4 buffer: pH 7. As for the experimental part:
Determination of the Kinetic Solubility in Phosphate Buffer
After shaking for approximately 30 seconds the reduction in light transmission of these samples, at 650 nm, was measured (Molecular Devices Spectromax UV/visible spectrophotometer). A second measurement was taken at approximately 30 seconds later.

Values after ≈ are worked out from the molar mass of the structure shown.

Human KLK1, sequence (P06870 25-262): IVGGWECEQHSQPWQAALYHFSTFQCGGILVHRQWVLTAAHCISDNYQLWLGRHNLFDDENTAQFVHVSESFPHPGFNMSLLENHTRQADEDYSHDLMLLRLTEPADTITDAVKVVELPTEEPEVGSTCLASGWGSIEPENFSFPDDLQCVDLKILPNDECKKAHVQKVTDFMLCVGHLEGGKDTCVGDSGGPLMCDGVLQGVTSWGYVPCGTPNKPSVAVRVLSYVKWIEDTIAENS
Human plasma kallikrein, sequence (P03952 391-638): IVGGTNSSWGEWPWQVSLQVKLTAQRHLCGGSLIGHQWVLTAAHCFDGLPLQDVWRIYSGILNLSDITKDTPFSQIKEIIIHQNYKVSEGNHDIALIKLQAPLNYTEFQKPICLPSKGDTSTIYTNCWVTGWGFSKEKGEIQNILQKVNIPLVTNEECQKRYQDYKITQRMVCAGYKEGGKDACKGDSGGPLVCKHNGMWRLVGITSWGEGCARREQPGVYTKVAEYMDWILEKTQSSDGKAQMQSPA
Human plasma kallikrein, sequence (P03952 20-390 partner): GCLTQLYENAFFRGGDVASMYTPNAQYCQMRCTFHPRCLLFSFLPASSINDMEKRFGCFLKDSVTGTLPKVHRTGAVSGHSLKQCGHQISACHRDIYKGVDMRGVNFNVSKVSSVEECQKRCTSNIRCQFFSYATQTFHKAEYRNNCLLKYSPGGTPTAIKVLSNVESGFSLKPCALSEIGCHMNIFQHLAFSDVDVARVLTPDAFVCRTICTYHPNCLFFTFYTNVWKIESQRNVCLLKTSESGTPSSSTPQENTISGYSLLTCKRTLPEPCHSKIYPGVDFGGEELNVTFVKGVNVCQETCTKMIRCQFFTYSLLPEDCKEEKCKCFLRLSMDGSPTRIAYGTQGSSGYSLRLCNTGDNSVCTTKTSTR

Usually IC50 stands for the concentration that gives 50% inhibition. For `CCOc1ccc(C[C@@H](NS(=O)(=O)c2ccccc2)C(=O)N[C@@H](Cc2ccccc2)C(=O)NCc2ccc(CN)cc2)cc1` [Example 15, (R)-N-[(S)-1-(4-Aminomethyl-benzylcarbamoyl)-2-phenyl-ethyl]-2-benzenesulfonylamino-3-(4-ethoxy-phenyl)-propionamide], the results for the IC50 in data set [1] and in data set [2] were 2.2 µM and 0.47 µM, respectively. Moreover, in data set [3], the solubility in PO4 buffer is over 235 µM.

As to `CCOc1ccc(C[C@@H](NCC(=O)O)C(=O)N[C@@H](Cc2ccccc2)C(=O)NCc2ccc(CN)cc2)cc1` [Example 17, [(R)-1-[(S)-1-(4-Aminomethyl-benzylcarbamoyl)-2-phenyl-ethylcarbamoyl]-2-(4-ethoxy-phenyl)-ethylamino]-acetic acid], the IC50 was over 10 µM in data set [1] and 5.8 µM in data set [2]. Moreover, in data set [3], the solubility in PO4 buffer was over 235 µM.

Turning to `NCc1ccc(CNC(=O)[C@H](Cc2ccc(Cl)c(Cl)c2)NC(=O)[C@H](N)Cc2ccc(C(F)(F)F)cc2)cc1` [Example 18, (R)-2-Amino-N-[(S)-1-(4-aminomethyl-benzylcarbamoyl)-2-(3,4-dichloro-phenyl)-ethyl]-3-(4-trifluoromethyl-phenyl)-propionamide], the figures for the IC50 in data set [1] and in data set [2] were 1.6 µM and 8.8 µM, respectively. The solubility in PO4 buffer in data set [3] is over 235 µM.

Turning to `NCc1ccc(CNC(=O)[C@H](Cc2ccc(Cl)c(Cl)c2)NC(=O)[C@H](N)CC2CCCCC2)cc1` [Example 20, (R)-2-Amino-N-[(S)-1-(4-aminomethyl-benzylcarbamoyl)-2-(3,4-dichloro-phenyl)-ethyl]-3-cyclohexyl-propionamide], the values for the IC50 in data set [1] and in data set [2] were 3.7 µM and 0.73 µM, respectively. In addition, in data set [3], the solubility in PO4 buffer was over 235 µM.

One may read the solubility as the concentration that dissolves in the medium under given conditions. Read a high solubility as much dissolved substance. Regarding `CCC(=O)N[C@H](CC1CCCCC1)C(=O)N[C@@H](Cc1ccc(Cl)c(Cl)c1)C(=O)NCc1ccc(CN)cc1` [Example 21, (R)-N-[(S)-1-(4-Aminomethyl-benzylcarbamoyl)-2-(3,4-dichloro-phenyl)-ethyl]-3-cyclohexyl-2-propionylamino-propionamide], the IC50 in data set [1] was 10 µM; in data set [2], 5.1 µM. In data set [3] (pH 7, aqueous buffer, kinetic from dmso stock), this molecule had a solubility of 12 µM (≈ 6.74 µg/mL).

Regarding `CCOc1ccc(C[C@@H](NC(=O)CC)C(=O)N[C@@H](Cc2ccccc2)C(=O)N(C)Cc2ccc(CN)cc2)cc1` [Example 24, (S)-N-(4-Aminomethyl-benzyl)-2-[(R)-3-(4-ethoxy-phenyl)-2-propionylamino-propionylamino]-N-methyl-3-phenyl-propionamide], the 50% inhibitory concentration (IC50) in data set [1] was over 10 µM; in data set [2] it was 0.45 µM. The same molecule had a solubility in PO4 buffer in data set [3] of over 235 µM.

In the case of `CCOc1ccc(C[C@@H](N)C(=O)N(C)[C@@H](Cc2ccccc2)C(=O)NCc2ccc(CN)cc2)cc1` [Example 25, (R)-2-Amino-N-[(S)-1-(4-aminomethyl-benzylcarbamoyl)-2-phenyl-ethyl]-3-(4-ethoxy-phenyl)-N-methyl-propionamide], the IC50 in data set [1] worked out at 6.3 µM; in data set [2], 0.34 µM. In data set [3], the solubility in PO4 buffer was over 235 µM.

As for `CCOc1ccc(C[C@@H](NC(=O)CC)C(=O)N(C)[C@@H](Cc2ccccc2)C(=O)NCc2ccc(CN)cc2)cc1` [Example 26, (S)-N-(4-Aminomethyl-benzyl)-2-{[(R)-3-(4-ethoxy-phenyl)-2-propionylamino-propionyl]-methyl-amino}-3-phenyl-propionamide], the IC50 in data set [1] was over 10 µM; in data set [2] it was 0.081 µM. For the same molecule, the solubility in PO4 buffer in data set [3] was over 235 µM.

For `CCOc1ccc(C[C@@H](NC)C(=O)N[C@@H](Cc2ccccc2)C(=O)NCc2ccc(CN)cc2)cc1` [Example 27, (R)-N-[(S)-1-(4-Aminomethyl-benzylcarbamoyl)-2-phenyl-ethyl]-3-(4-ethoxy-phenyl)-2-methylamino-propionamide], the IC50 stood at 4 µM in data set [1] and 1.3 µM in data set [2]. Moreover, in data set [3], the solubility in PO4 buffer is over 235 µM.

As to `CN(CC(=O)O)[C@H](CC1CCCCC1)C(=O)N[C@@H](Cc1ccccc1)C(=O)NCc1ccc(CN)cc1` [Example 29, ({(R)-1-[(S)-1-(4-Aminomethyl-benzylcarbamoyl)-2-phenyl-ethylcarbamoyl]-2-cyclohexyl-ethyl}-methyl-amino)-acetic acid], the IC50 in data set [1] is over 10 µM; in data set [2], 0.3 µM. Further, in data set [3], the solubility in PO4 buffer is over 235 µM.

Regarding `CN(C(=O)[C@@H](CC1CCCCC1)NCC(=O)O)[C@@H](Cc1ccccc1)C(=O)NCc1ccc(CN)cc1` [Example 30, ((R)-1-{[(S)-1-(4-Aminomethyl-benzylcarbamoyl)-2-phenyl-ethyl]-methyl-carbamoyl}-2-cyclohexyl-ethylamino)-acetic acid], the IC50 is over 10 µM in data set [1] and 0.58 µM in data set [2]. Moreover, the solubility in PO4 buffer in data set [3] was over 235 µM.

Consider `CCOc1ccc(C[C@H](C(=O)N[C@@H](Cc2ccccc2)C(=O)NCc2ccc(CN)cc2)N(C)C(=O)CC)cc1` [Example 31, (S)-N-(4-Aminomethyl-benzyl)-2-[(R)-3-(4-ethoxy-phenyl)-2-(methyl-propionyl-amino)-propionylamino]-3-phenyl-propionamide], for which the figures for the IC50 in data set [1] and in data set [2] were 9.6 µM and 4.3 µM, respectively. For the same molecule, in data set [3], the solubility in PO4 buffer was over 235 µM.

Turning to `CCOc1ccc(C[C@@H](NC(=O)CC)C(=O)N(C)[C@@H](Cc2ccccc2)C(=O)NCc2ccc(CN)c(F)c2)cc1` [Example 32, (S)-N-(4-Aminomethyl-3-fluoro-benzyl)-2-{[(R)-3-(4-ethoxy-phenyl)-2-propionylamino-propionyl]-methyl-amino}-3-phenyl-propionamide], the IC50 was over 10 µM in data set [1] and 0.2 µM in data set [2]. The same molecule displayed a solubility in PO4 buffer in data set [3] of over 235 µM.

Consider `CN[C@H](CC1CCCCC1)C(=O)N[C@@H](Cc1ccccc1)C(=O)NCc1ccc(CN)cc1` [Example 33, (R)-N-[(S)-1-(4-Aminomethyl-benzylcarbamoyl)-2-phenyl-ethyl]-3-cyclohexyl-2-methylamino-propionamide], for which the IC50 was over 10 µM in data set [1] and 1.1 µM in data set [2]. The molecule further gave a solubility in PO4 buffer in data set [3] of over 235 µM.

`CN(C(=O)[C@@H](CC1CCCCC1)NCC(=O)O)[C@@H](Cc1ccccc1)C(=O)NCc1ccc(CN)c(F)c1` [Example 34, ((R)-1-{[(S)-1-(4-Aminomethyl-3-fluoro-benzylcarbamoyl)-2-phenyl-ethyl]-methyl-carbamoyl}-2-cyclohexyl-ethylamino)-acetic acid]: the half-maximal inhibitory concentration (IC50) was determined as 7.7 µM in data set [1] and 1.4 µM in data set [2]. The solubility in PO4 buffer in data set [3] was over 235 µM.

For `CCCN[C@H](Cc1ccc(OCC)cc1)C(=O)N(C)[C@@H](Cc1ccccc1)C(=O)NCc1ccc(CN)cc1` [Example 35, (R)-N-[(S)-1-(4-Aminomethyl-benzylcarbamoyl)-2-phenyl-ethyl]-3-(4-ethoxy-phenyl)-N-methyl-2-propylamino-propionamide], the IC50 in data set [1] is over 10 µM; in data set [2], 2 µM. Besides, in data set [3], the solubility in PO4 buffer was over 235 µM.

For the molecule `CN(Cc1ccc(CN)cc1)C(=O)[C@H](Cc1ccccc1)NC(=O)[C@@H](CC1CCCCC1)NCC(=O)O` [Example 36, ((R)-1-{(S)-1-[(4-Aminomethyl-benzyl)-methyl-carbamoyl]-2-phenyl-ethylcarbamoyl}-2-cyclohexyl-ethylamino)-acetic acid], the IC50 is over 10 µM in data set [1] and 8.2 µM in data set [2]. In data set [3], the solubility in PO4 buffer was over 235 µM.

Consider `CCCN[C@H](CC1CCCCC1)C(=O)N[C@@H](Cc1ccccc1)C(=O)NCc1ccc(CN)cc1` [Example 37, (R)-N-[(S)-1-(4-Aminomethyl-benzylcarbamoyl)-2-phenyl-ethyl]-3-cyclohexyl-2-propylamino-propionamide], for which the IC50 was over 10 µM in data set [1] and 0.91 µM in data set [2]. Besides, the solubility in PO4 buffer in data set [3] was over 235 µM.

On to `CCOc1ccc(C[C@@H](NC(C)=O)C(=O)N(C)[C@@H](Cc2ccccc2)C(=O)NCc2ccc(CN)cc2)cc1` [Example 39, (R)-2-Acetylamino-N-[(S)-1-(4-aminomethyl-benzylcarbamoyl)-2-phenyl-ethyl]-3-(4-ethoxy-phenyl)-N-methyl-propionamide], for which the IC50 is over 10 µM in data set [1] and 0.31 µM in data set [2]. For the same molecule, the solubility in PO4 buffer in data set [3] was over 235 µM.

Turning to `CN[C@H](CC1CCCCC1)C(=O)N[C@@H](Cc1ccccc1)C(=O)NCc1ccc(CN)c(F)c1` [Example 40, (R)-N-[(S)-1-(4-Aminomethyl-3-fluoro-benzylcarbamoyl)-2-phenyl-ethyl]-3-cyclohexyl-2-methylamino-propionamide], the figures for the IC50 in data set [1] and in data set [2] were over 10 µM and 1.8 µM, respectively. The same molecule gave a solubility in PO4 buffer in data set [3] of over 235 µM.

In the case of `CN[C@H](CC1CCCCC1)C(=O)N[C@@H](Cc1ccc(Cl)c(Cl)c1)C(=O)NCc1ccc(CN)c(F)c1` [Example 41, (R)-N-[(S)-1-(4-Aminomethyl-3-fluoro-benzylcarbamoyl)-2-(3,4-dichloro-phenyl)-ethyl]-3-cyclohexyl-2-methylamino-propionamide], the results for the IC50 in data set [1] and in data set [2] were 2.5 µM and 1.3 µM, respectively. For the same molecule, in data set [3], the solubility in PO4 buffer is over 235 µM.

Consider `CN(CC(=O)O)[C@H](CC1CCCCC1)C(=O)N[C@@H](Cc1ccccc1)C(=O)NCc1ccc(CN)c(F)c1` [Example 42, ({(R)-1-[(S)-1-(4-Aminomethyl-3-fluoro-benzylcarbamoyl)-2-phenyl-ethylcarbamoyl]-2-cyclohexyl-ethyl}-methyl-amino)-acetic acid], for which the IC50 in data set [1] was over 10 µM; in data set [2], 0.53 µM. In data set [3], this molecule gave a solubility in PO4 buffer of over 235 µM.
